“Also recorded” adds a separate entry of the source. Where two headings read alike, the source gives them in different places.

Data set [1] relates to SirT1 levels in N2a-E4 cells. Description: SirT1 AlphaLISA in N2a-E4 cells (HTS, secondary and dose-response testing). It is filed as cell-based, murine. The following applies: for Dose-response increase in SirT1 in secondary testing: N2a-E4 cells, 1, 5 and 10 μM; for SirT1 level in HTS: 24 hrs, NIH Clinical Collection screen, A03 5 μM as positive control; for SirT1 increase, racemate vs enantiomers: 5 and 50 μM, n = 3 wells. As to the method:
For HTS we tested a portion of the UCLA compound library (10 plates) including the NIH Clinical Collection library (3 plates). Complete medium (25 µL) was added to each well of 384-well plates, then library compounds were added (250 nL) followed by a suspension of 4 × 10^5 cells/mL murine neuroblastoma N2a cells (25 μL) stably transfected with ApoE4 (N2a-E4). After incubation of the N2a-E4 cells with compounds for 24 hrs at 37 °C and 5% CO2, all but ~6 μL of medium were removed and AlphaLISA Lysis Buffer complemented with HALT protease/phosphatase inhibitor (20 μL, 1X final) was added to each well. To maximize lysis, the plates were frozen at −80 °C. For the AlphaLISA, lysates were thawed and vortexed for 1 min at 3000 rpm.
The AlphaLISA comprises streptavidin donor beads, biotinylated anti-SirT1 N-terminal antibody (19A7AB4), and acceptor beads conjugated to the anti-SirT1 C-terminal antibody (1F3); when the target protein is bound by both antibodies, the beads are in close enough proximity for a transfer of ^1O2 and emission of a detectable signal (Supplementary Fig. S3). For the AlphaLISA, a 384-proxy plate was preloaded with AlphaLISA buffer (2 µL, 1X) with HALT (1X), then cell lysate (2 μL) was transferred to the proxy plate followed by the antibody-mix (2 μL). After incubation at room temperature for 1 hr, the donor bead mixture was added (2 µL) and incubated for an additional 30 min. The plates were then read in an Envision plate reader. All points are one replicate. The standard curve is generated by serial dilution of recombinant SirT1 to assess the linear range of the assay; study samples undergo serial dilution as well. We use A03 as a positive control in the HTS assay. The Z-value, while not ideal, was <1 for the assay (Supplementary Fig. S3).
Compound in medium (50 µL, 2X) was loaded into a 96-well plate, then 4 × 10^4 cells were added to each well; 24 hrs later the medium was removed and cells lysed. Lysate protein concentration was determined using the Bradford assay according to the manufacturer’s instructions. SirT1 was determined in lysates using the SirT1 AlphaLISA as described above.

Data set [2] relates to humans. Details: method as in PMID 22616762. The following applies: cited from earlier work.
Data set [3] can be described thus: Parallel Artificial Membrane Permeability Assay (PAMPA; IAM column). In kind it is in vitro ADME. The following applies: for retention time (Tr) in PAMPA: IAM.PC.DD2 column, acetonitrile:PBS (pH 5.6) 35:65; for KIAM: KIAM = (Tr-T0)/T0, T0 = 1.24 min; for (KIAM/MW^4) * 10^−(10): MW 255.74 g/mol. As to the method: We used L(+)tartaric acid to isolate the L-enantiomer salt and D(-) tartaric acid to isolate the D-enantiomer salt, followed by neutralization of the salt with NaOH and re-crystallization to obtain the enantiomers. Enantiomer abundance (Supplementary Fig. S4) was determined by HPLC using a Chiralpak IB column. Isopropanol (0.2% diethylamine)/hexanes was used for gradient elution with 5–50% isopropanol (0.2% diethylamine) for 11 min, a Chiralpak IB column, and with sample (1 μL, 1.25 mg/mL) injection, 220 nm wavelength detection, and a flow rate of 1 mL/min. […] The L-alanine analog co-elutes with enantiomer-1 while the D-alanine analog co-elutes with enantiomer-2. Analysis of the enantiomers and A03 in the Parallel Artificial Membrane Permeability Assay (PAMPA) was performed and is described in Supplementary Methods. […]
PAMPA. An IAM.PC.DD2 Regis Technologies analytical (10 cm x 4.6 mm) column wherein phospholipid is bonded on 10 μm, 300 Å, spherical aminopropyl silica and end capped with C10 and C3 amides was used to determine membrane permeability of A03, E1 and E2. An isocratic method was used with a mobile phase comprising acetonitrile:PBS (pH 5.6) equal to 35:65, an injection volume of 5 µL, and a flow rate of 1 mL/min. The parameters determined are Tr = retention time of compound; KIAM= (Tr-T0)/T0; T0= is the delay time of the column, determined by use of 100 µg/mL citric acid) and was T0= 1.24 min; and (KIAM/MW4)*10-(10). The molecular weight of all three compounds was 255.74 g/mol. […]
Supplementary Fig. S1. […] (a) Transient transfection with either
ApoE3 or E4 decreased SirT1 levels as compared to empty vector (Pc/DMSO), but the decrease was greater with […]

Data set [4] can be described thus: Pharmacokinetics after oral delivery in mice. In kind it is in vivo. As to conditions: oral 10 mg/kg; for Tmax / AUC: mouse; for Tmax: brain, n = 1 per time point; for AUC: plasma; for AUC / AUC brain: 1-8 hours. On the procedure: All in vivo experiments described were carried out in strict accordance with good animal practice according to NIH recommendations. All procedures for animal use were approved by the Animal Research Committee (ARC) at UCLA and under an approved ARC protocol. Pharmacokinetic (PK) analysis[68]–[70] consisted of oral delivery of compounds (10 mg/Kg) to individual mice followed by euthanasia at 1, 2, 4, 6, and 8 hours post-dose by ketamine/xylazine over-anesthesia, blood collection by cardiac puncture, and transcardial saline perfusion. Whole blood was centrifuged at 5000 rpm for 10 min. in a 5 °C centrifuge to isolate plasma and the plasma stored at −20 °C before analysis. Whole brains were collected, dissected down the midline, snap frozen on dry ice, and stored at −80 °C before analysis. The levels of the compounds in both plasma and brain tissue were determined by a quantitative LC/MS/MS methodology at Integrated Analytical Solutions (IAS, Berkeley, CA). Plasma samples were precipitated with an acetonitrile: methanol (1:1) cocktail containing an internal standard. Brain samples were homogenized directly in ethyl acetate by the liquid-liquid method. The resulting supernatant was evaporated to dryness and subjected to LC/MS/MS analysis. The Tmax, Cmax, brain-to-plasma ratios and brain levels were then calculated using PK Solutions software (SummitPK).

Data set [5] can be described thus: Pharmacokinetics after subcutaneous (SQ) injection in mice. In kind it is in vivo. The following applies: mouse, mice, SQ 10 mg/kg; for Cmax: brain, n = 1, read-out: Cmax in brain.
The nature of data set [6]: Brain compound levels 2 hours after the last dose in efficacy studies. In kind it is in vivo, mice. As to conditions: pilot study, SQ 10 mg/kg/day, 28 days, n = 8. On the procedure: Mice were euthanized and blood/tissues collected 2 hrs after dosing on day 28 by the method described above for PK. Frontal and parietal cortices (FrCx and PtCx, respectively), as well as the remaining brain tissue, from individual mice were dissected, snap frozen on dry ice, and stored at −80 °C. Plasma samples and the brain tissue minus the FrCx and PtCx (the ‘rest’) from all compound-treated mice were sent to IAS for compound level analysis as described above.
Mice were euthanized and blood/tissues collected 2 hrs after dosing on Day 25 by the method described above for PK. FrCx, PtCx, and hippocampi (Hip) were collected from all mice for SirT1 and sAPPα level determination by AlphaLISA. Protein concentration was determined using a Bradford protein assay. Brain and plasma levels of A03 were determined at IAS.
Mice were euthanized and blood/tissues collected 2 hrs after dosing on Day 56 by the method described above for PK. Hip and FrCx were collected for analysis of SirT1, sAPPα, and Aβ1-42 levels by AlphaLISA. For Aβ1-42 the Perkin Elmer kit AL276C was used. Protein concentrations were determined using the Bradford protein assay. The sAPPα and sAPPβ AlphaLISAs were similar to the SirT1 AlphaLISA (see Supplementary Fig. S3) but the former uses anti-sAPPα antibody AF1168 and 2B3-biotinylated antibodies and the latter an anti-sAPPβ antibody (IBL Cat. #18957) and an anti-N-terminal APP antibody (R&D Systems AF1168) instead of anti-SirT1 antibodies. Brain tissue and plasma were sent to IAS for A03 level analysis.

The mark [7] stands for this setting: secondary assay, N2a-E4 cells, n = 6 wells.

In the case of `CNCCC(Oc1ccc(C(F)(F)F)cc1)c1ccccc1` (centres unmarked) [fluoxetine, reference compound], the “Dose-response increase in SirT1 in secondary testing” value in data set [1] was “neither fluoxetine nor memantine (Fig. 3a) elicited a dose-response increase in SirT1”. Further, the “SirT1 level in HTS” value in data set [1] (N2a-E4 cells) is on record as “neither fluoxetine nor memantine enhanced SirT1”. The “SirT1 increase vs DMSO control at 1 μM” value in data set [1] (setting [7]) was “only A03 and memantine at 1 μM elicited modest but significant increases”.

On to `Cc1nc(-c2cccnc2)sc1C(=O)Nc1ccccc1-c1cn2c(CN3CCOCC3)csc2n1` [SRT2104], for which the “Tolerability after single and multiple oral dosing” value in data set [2] is listed as “well tolerated”.

In the case of `CC12CC3CC(C)(C1)CC(N)(C3)C2` [memantine, reference compound], the “Dose-response increase in SirT1 in secondary testing” value in data set [1] is recorded as “neither fluoxetine nor memantine (Fig. 3a) elicited a dose-response increase in SirT1”. Moreover, the “SirT1 level in HTS” value in data set [1] (N2a-E4 cells) is on record as “neither fluoxetine nor memantine enhanced SirT1”. Also, in data set [1] (setting [7]), the “SirT1 increase vs DMSO control at 1 μM” value is listed as “modest but significant increases”. For the same compound, the “SirT1 increase vs DMSO control at 5 and 10 μM” value in data set [1] (secondary assay, N2a-E4 cells, 5 and 10 μM, n = 6 wells) is recorded as “not at 5 or 10 μM”.

Consider `C[C@H](N)C(=O)OC(C)(C)Cc1ccc(Cl)cc1` [E1], for which the “SirT1 increase, racemate vs enantiomers” value in data set [1] (N2a-E4 cells) is “more effective in increasing SirT1 in vitro compared to the optical antipode E2; also recorded: increase SirT1 in N2a-E4 with high significance”. Also, in data set [3], the “retention time (Tr) in PAMPA” value was determined as 3.3, the KIAM was 1.66 and the “(KIAM/MW^4) * 10^−(10)” value was 3.88. For the same compound, in data set [4], the Tmax was 1 h, the exposure (AUC) amounted to 86 ng·h/mL and the AUC brain stood at 850 ng·h/g. Moreover, in data set [5] (sc), the Cmax was approximately 5600 ng/g. For the same compound, the Cmax in data set [5] (subcutaneous) was approximately 5800 ng/g. The AUC in data set [5] (plasma, sc) turned out to be 657 ng·h/mL. The “Brain levels 2 hours after the last dose, E1 vs A03” value in data set [6] is reported as “slightly lower”.

For `C[C@@H](N)C(=O)OC(C)(C)Cc1ccc(Cl)cc1` [E2], the “SirT1 increase, racemate vs enantiomers” value in data set [1] (N2a-E4 cells) is listed as “shows lower potency”. Further, in data set [3], the “retention time (Tr) in PAMPA” value turned out to be 3.31, the KIAM turned out to be 1.67 and the “(KIAM/MW^4) * 10^−(10)” value is reported as 3.90. In data set [4], the Tmax amounted to 1 h, the area under the curve (AUC) stood at 104 ng·h/mL and the AUC brain amounted to 806 ng·h/g.

Values taken from article PMC6279743, “A small molecule ApoE4-targeted therapeutic candidate that normalizes sirtuin 1 levels and improves cognition in an Alzheimer’s disease mouse model” (Scientific Reports, 2018).
